Reference: patent EP0434979B1, “Peptide derivatives useful as antagonists of bombesin and gastrin-releasing peptide” (MERRELL DOW PHARMACEUTICALS INC., priority 1989, dated 1991)
pKd: −log10 of the molar value. Read-outs that look alike come from different tables or passages of the source. Blank lines part the entries; values can stand above or below the molecule they belong to. Where a SMILES comes first, the peptide text is derived from it. [ ]: non-standard residue; d: D form. The star is where a group is joined. Pheψ(CH2S)LeuNH2 = CC(C)C[C@H](SC[C@H](Cc1ccccc1)N*)C(N)=O; pGlu = O=C1CC[C@@H](C(=O)O)N1

How the values were obtained:
bombesin/GRP receptor [1] = target: T1, bombesin/GRP receptor (Mus musculus, UniProt P21729); assay: Competition at the receptor for iodinated GRP (binding to murine pancreatic membranes); design: species or system mice; details: for Kd: Kd (nM); for pKd: read-out: Kd
T1 construct: Pancreata from mice were pooled and chopped at 350 µm with a tissue chopper; from tissue; host or cells: chopped mouse pancreas
Description: The pancreata from one or more mice were pooled, minced, and homogenized in 50 mM HEPES (pH 7.4) containing 120 mM NaCl and 5 mM KCl at 4°C and centrifuged at 37,500 X g for 15 minutes. The pellet was resuspended in 50 mM HEPES (pH 7.4) containing 10 mM EDTA and 300 mM KCl and incubated for 30 minutes at 4°C. The suspension was centrifuged as above and the pellet was washed two times in 50 mM HEPES (pH 7.4) containing protease inhibitors (10 µM phenylmethylsulfonyl fluoride, 1 µM thiorphan, 40 µg/ml bacitracin, 10mM iodoacetimide and 4 µg/ml leupeptin), and again centrifuged. The tissue was then resuspended in incubation buffer (1ml per 4 mg pancreas) and incubated for 15 minutes at room temperature, then 250 µl was added to each assay tube to commence the assay. […] The assay was allowed to proceed to equilibrium for 90 minutes at room temperature. After this time, the contents of each tube was rapidly filtered over Whatman GF/B filters presoaked in 0.1% polyethyleneimine and the filters were rapidly washed three times with ice-cold 50 mM HEPES (pH 7.4). Filter-bound radioactivity was quantitated in a gamma counter. […] Affinity and maximal binding were calculated with Ligand (Biosoft, Cambridge, UK) (Figure 1 and Figure 2).
Binding was assayed in triplicate using 0.1 […] and the indicated concentrations of peptide. The abscissa (x-axis) logarithmically indicates the concentration of agonists or antagonist of the GRP receptor.

bombesin/GRP receptor [2] = target: T1, bombesin/GRP receptor; assay: Phosphatidylinositol (PI) turnover in chopped murine pancreas, alone (agonism) or before GRP (antagonism); type: cell-based, mice; design: key to PI Turnover Agonist / PI Turnover Antag.: "+" indicates activity; "-" indicates no activity; details: for PI Turnover Antag.: ability to block GRP-stimulated PI turnover, pretreatment with 1 uM potential antagonist; for PI Turnover Antag. / PI Turnover Agonist: murine pancreas; for PI Turnover Agonist: ability to stimulate PI turnover
Description: Pancreata from mice were pooled and chopped at 350 µm with a tissue chopper. The chopped tissue was washed twice with Krebs-Hepes buffer, then incubated for 30 minutes in 37°C Krebs-Hepes buffer with fresh buffer after 15 minutes. The tissue was then incubated in this buffer containing 100-200 µCi of ³H-inositol at 37°C for 1 hour. The tissue was then washed twice and incubated for another 30 minutes in Krebs-Hepes buffer (containing 10 mM Li⁺) at 37°C with fresh buffer change after 15 minutes. Portions of the tissue mass (approximately 10 mg per assay tube) were then placed in Li⁺ buffer with protease inhibitors, (40 µg/ml bacitracin,4 µg/ml leupeptin, 4 µg/ml chymostatin, 20 µg/ml thiorphan), 0.1% BSA, and then 0.1-1000 nM peptide was added in 25 µl in a final volume of 250 µl. […] After 60 minutes at room temperature, the phosphatidylinositol turnover was terminated by the addition of 940 µl chloroform:methanol (1:2), followed by 310 µl chloroform, followed by 310 µl water. Each tube was then vortexed for 5 seconds and then centrifuged at 2500 x g for 8 minutes to separate the phases. 900 µl of the top (aqueous) phase was then mixed with 2.1 ml water and loaded onto a 0.5 ml Biorad AG-1X8 (formate) ion exchange column. 50 µl of the bottom phase (chloroform) was withdrawn from each tube and placed in a counting vial, dried, and counted in scintillation fluid. The material on the columns was washed in order with: 1) 10 ml of water 2) 5 ml of 5 mM disodium tetraborate/60 mM sodium formate 3) 10 ml of 1 M ammonium formate in 0.1 M formic acid. The final (third) wash was collected and one ml was mixed with 10 ml of Bio-Safe scintillant and counted. The ratio of these counts (total inositol phosphates) to the corresponding organic phase counts was then calculated for each sample. The ratios in the presence of test compound and/or standards were then compared to the ratios for control tubes (i.e., no stimulating agonist). Dose-response lines were constructed and the abilities of test compounds to stimulate or to inhibit GRP induced phosphatidylinositol turnover were determined by graphical analysis or with the aid of a computer program and are illustrated in Figures 3 and 4.
The abscissa (x-axis) logarithmically indicates the concentration of peptide present. The ordinate (y-axis) indicates the observed PI turnover as a percentage of control. Values are mean ± standard error of triplicate determinations; where not shown, the errors are ≤the size of the data points.
Figure 4 illustrates the ability of (Phe₁₃[CH₂s]Leu₁₄)bombesin to antagonize GRP-induced PI turnover in murine pancreas (Example 2). The abscissa (x-axis) logarithmically indicates the concentration of peptide present. The ordinate (y-axis) indicates the observed PI turnover as a percentage of control. […] Data are the mean ± standard error of triplicate determinations; where not shown, the errors are ≤ the size of the data points.

[3] = receptor affinity, competition for iodinated GRP binding, murine pancreatic membranes
[4] = LIGAND analysis, 0.1 nM iodinated GRP, triplicate, murine pancreatic membranes (Figure 2)

T1 sequence (P21729 whole entry): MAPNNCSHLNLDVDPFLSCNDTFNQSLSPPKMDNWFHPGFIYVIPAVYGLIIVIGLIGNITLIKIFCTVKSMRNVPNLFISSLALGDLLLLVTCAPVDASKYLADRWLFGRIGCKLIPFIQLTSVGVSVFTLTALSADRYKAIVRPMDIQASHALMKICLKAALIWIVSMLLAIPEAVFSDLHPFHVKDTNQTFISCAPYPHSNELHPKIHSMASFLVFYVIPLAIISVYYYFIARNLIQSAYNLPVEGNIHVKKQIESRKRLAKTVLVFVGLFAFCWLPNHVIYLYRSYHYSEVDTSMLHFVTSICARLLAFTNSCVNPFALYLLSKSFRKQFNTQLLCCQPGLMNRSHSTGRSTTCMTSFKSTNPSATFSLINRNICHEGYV

SMILES: CCCC[C@H](SC[C@H](Cc1ccccc1)NC(=O)[C@H](Cc1c[nH]cn1)NC(=O)CNC(=O)[C@@H](NC(=O)[C@H](C)NC(=O)[C@H](Cc1c[nH]c2ccccc12)NC(=O)[C@H](CCC(N)=O)NC(=O)[C@@H]1CCC(=O)N1)C(C)C)C(N)=O [pQ Q W A V G H FΨ [CH₂S]Z#, pGlu-Gln-Trp-Ala-Val-Gly- His-Phe Ψ(CH₂S]Nle-NH₂]
Kd (bombesin/GRP receptor [1]; [3]): 4 nM

PI Turnover Antag. (bombesin/GRP receptor [2]): +
PI Turnover Agonist (bombesin/GRP receptor [2]): -
SMILES: CC(=O)N[C@H](Cc1ccccc1)C(=O)N[C@@H](CCC(N)=O)C(=O)N[C@@H](Cc1c[nH]c2ccccc12)C(=O)N[C@@H](C)C(=O)N[C@H](C(=O)N[C@H](C)C(=O)N[C@@H](Cc1c[nH]cn1)C(=O)N[C@H](CS[C@@H](CC(C)C)C(N)=O)Cc1ccccc1)C(C)C [Acf Q W A V a H FΨ[CH₂S]L#, Ac-D-Phe-Gln-Trp-Ala-Val-D-Ala-His-PheΨ[CH₂S]Leu-NH₂] (Ac-[dF]QWAV[dA]H-{Pheψ(CH2S)LeuNH2})

SMILES: CC(C)C[C@H](NC(=O)[C@H](CCCNC(=N)N)NC(=O)[C@H](CCC(N)=O)NC(=O)[C@@H]1CCC(=O)N1)C(=O)NCC(=O)N[C@@H](CC(N)=O)C(=O)N[C@@H](CCC(N)=O)C(=O)N[C@@H](Cc1c[nH]c2ccccc12)C(=O)N[C@@H](C)C(=O)N[C@H](C(=O)NCC(=O)N[C@@H](Cc1c[nH]cn1)C(=O)N[C@H](CS[C@@H](CC(C)C)C(N)=O)Cc1ccccc1)C(C)C [pQ Q R L G N Q W A V G H FΨ[CH₂S]L#] ([pGlu]QRLGNQWAVGH-{Pheψ(CH2S)LeuNH2})
pKd (bombesin/GRP receptor [1]; [4]): 8.52
pKd (bombesin/GRP receptor [1]; [3]): 8.52
stimulation of phosphatidylinositol (PI) turnover (agonist activity) (bombesin/GRP receptor [2]; PI turnover as percentage of control, dose-response, triplicate (Figure 3)): no agonist activity
PI Turnover Antag. (bombesin/GRP receptor [2]): +
PI Turnover Agonist (bombesin/GRP receptor [2]): -
antagonism of GRP-induced PI turnover (bombesin/GRP receptor [2]; preincubation for 30 minutes with 1000 nM peptide, then 1-1000 nM GRP, murine pancreas (Figure 4)): reduces the stimulation of PI turnover

SMILES: CC(C)C[C@@H](C(N)=O)[S+]([O-])C[C@H](Cc1ccccc1)NC(=O)[C@H](Cc1c[nH]cn1)NC(=O)CNC(=O)[C@@H](NC(=O)[C@H](C)NC(=O)[C@H](Cc1c[nH]c2ccccc12)NC(=O)[C@H](CCC(N)=O)NC(=O)[C@@H]1CCC(=O)N1)C(C)C (single isomer, unassigned) [pQ Q W A V G H FΨ[CH₂S(O)]^IL#]
Kd (bombesin/GRP receptor [1]; [3]): 2 nM

SMILES: CC(C)C[C@@H](C(N)=O)[S+]([O-])C[C@H](Cc1ccccc1)NC(=O)[C@H](Cc1c[nH]cn1)NC(=O)CNC(=O)[C@@H](NC(=O)[C@H](C)NC(=O)[C@H](Cc1c[nH]c2ccccc12)NC(=O)[C@H](CCC(N)=O)NC(=O)[C@@H]1CCC(=O)N1)C(C)C (single isomer, unassigned) [pQ Q W A V G H FΨ[CH₂S(O)]^IIL#]
Kd (bombesin/GRP receptor [1]; [3]): 1 nM

SMILES: CC(C)C[C@H](SC[C@H](Cc1ccccc1)NC(=O)[C@H](Cc1c[nH]cn1)NC(=O)CNC(=O)[C@@H](NC(=O)[C@H](C)NC(=O)[C@H](Cc1c[nH]c2ccccc12)NC(=O)[C@H](CCC(N)=O)NC(=O)[C@@H]1CCC(=O)N1)C(C)C)C(N)=O [pQ Q W A V G H FΨCH₂S]L#]
Kd (bombesin/GRP receptor [1]; [3]): 3 nM

pKd (bombesin/GRP receptor [1]; [4]): 10.00
SMILES: CC(C)C[C@H](NC(=O)[C@H](Cc1ccccc1)NC(=O)[C@H](Cc1c[nH]cn1)NC(=O)CNC(=O)[C@@H](NC(=O)[C@H](C)NC(=O)[C@H](Cc1c[nH]c2ccccc12)NC(=O)[C@H](CCC(N)=O)NC(=O)[C@H](CC(N)=O)NC(=O)CNC(=O)[C@H](CC(C)C)NC(=O)[C@H](CCCNC(=N)N)NC(=O)[C@H](CCC(N)=O)NC(=O)[C@@H]1CCC(=O)N1)C(C)C)C(N)=O [(Phe₁₃Leu₁₄) bombesin, reference compound] ([pGlu]QRLGNQWAVGHFL-NH2)
